Patent US20240382494A1, “THERAPEUTIC COMPOUNDS” (priority 2023, published 2024)

Experiments:
[1] = tested on: SARS-CoV-2 viral replication; conditions: cited from earlier work
[2] = Cytotoxicity assay in Vero E6 cells (neutral red uptake); type: cell-based; conditions: African green monkey; Vero E6 cells, 2 days at 37° C., neutral red uptake; read-out: Vero CC50
SARS-CoV-2 PLpro = SARS-CoV-2 PLpro (Severe acute respiratory syndrome coronavirus 2, UniProt P0DTD1); experiment: FRET-based PLpro enzymatic assay; type: biochemical; conditions: 200 nM PLpro, 10 μM FRET substrate, 30 min preincubation at 30° C.; read-out: IC50
Method in brief: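 200 nM PLpro in 50 mM Hepes pH 7.5, 0.01% Triton X-100, 5 mM DTT, preincubated with compound 30 min at 30 °C; 10 μM final FRET substrate.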

Structure (SMILES)	EC50 [1]	CC50 at 2 days [2]	IC50 (SARS-CoV-2 PLpro)
Cc1ccc(N)cc1C(=O)N[C@H](C)c1cccc2ccccc12 [GRL0617]	~20 µM		
Cc1ccc(OCCN(C)C)cc1C(=O)N[C@H](C)c1cc(-c2cnn(C3CC3)c2)nc2ccccc12 [Example 8, (R)—N-(1-(2-(1-cyclopropyl-1H-pyrazol-4-yl)quinolin-4-yl)ethyl)-5-(2-(dimethylamino)ethoxy)-2-methylbenzamide]		63.1 ± 8.7 µM	< 0.5 µM
COCCn1cc(-c2cc([C@@H](C)NC(=O)c3cc(OCCN(C)C)ccc3C)c3ccccc3n2)cn1 [Example 6, (R)-5-(2-(dimethylamino)ethoxy)-N-(1-(2-(1-(2-methoxyethyl)-1H-pyrazol-4-yl)quinolin-4-yl)ethyl)-2-methylbenzamide]		200 ± 86.4 µM	< 0.5 µM
CSc1ccc(-c2cc([C@@H](C)NC(=O)c3cc(OCCN(C)C)ccc3C)c3ccccc3n2)cc1 [Example 70, (R)-5-(2-(dimethylamino)ethoxy)-2-methyl-N-(1-(2-(4-(methylthio)phenyl)quinolin-4-yl)ethyl)benzamide]		8.5 ± 2.01 µM	< 0.5 µM
Cc1ccc(N2CC(N(C)C)C2)cc1C(=O)N[C@H](C)c1cc(-c2cnn(C)c2)nc2ccccc12 [Example 95, (R)-5-(3-(dimethylamino)azetidin-1-yl)-2-methyl-N-(1-(2-(1-methyl-1H-pyrazol-4-yl)quinolin-4-yl)ethyl)benzamide]		311 ± 21.1 µM	0.5 to 1 µM
Cc1ccc(OCCN(C)C)cc1C(=O)N[C@H](C)c1cc(-c2cnn(C(C)C)c2)nc2ccccc12 [Example 14, (R)-5-(2-(dimethylamino)ethoxy)-N-(1-(2-(1-isopropyl-1H-pyrazol-4-yl)quinolin-4-yl)ethyl)-2-methylbenzamide]		37.7 ± 5.87 µM	< 0.5 µM
Cc1ccc(OCCN(C)C)cc1C(=O)N[C@H](C)c1cc(-c2cnn(C3CCC3)c2)nc2ccccc12 [Example 64, (R)—N-(1-(2-(1-cyclobutyl-1H-pyrazol-4-yl)quinolin-4-yl)ethyl)-5-(2-(dimethylamino)ethoxy)-2-methylbenzamide]		25.3 ± 5.82 µM	< 0.5 µM
CCn1ccc(-c2cc([C@@H](C)NC(=O)c3cc(N4CCN(C)CC4)ccc3C)c3ccccc3n2)n1 [Example 108, (R)—N-(1-(2-(1-ethyl-1H-pyrazol-3-yl)quinolin-4-yl)ethyl)-2-methyl-5-(4-methylpiperazin-1-yl)benzamide]		18.5 ± 1.4 µM	< 0.5 µM
Cc1ccc(N2CCN(C)CC2)cc1C(=O)N[C@H](C)c1cc(-c2ccco2)nc2ccccc12 [Example 74, (R)—N-(1-(2-(furan-2-yl)quinolin-4-yl)ethyl)-2-methyl-5-(4-methylpiperazin-1-yl)benzamide]		19.5 ± 1.13 µM	< 0.5 µM
Cc1ccc(N(C)CC2CN(C)C2)cc1C(=O)N[C@H](C)c1cc(-c2cnn(C)c2)nc2ccccc12 [Example 89, (R)-2-methyl-5-(methyl((1-methylazetidin-3-yl)methyl)amino)-N-(1-(2-(1-methyl-1H-pyrazol-4-yl)quinolin-4-yl)ethyl)benzamide]		89.3 µM	1 to 5 µM
Cc1ccc(OCCN(C)C)cc1C(=O)N[C@H](C)c1cc(-c2cnn(CC(N)=O)c2)nc2ccccc12 [Example 24, (R)—N-(1-(2-(1-(2-amino-2-oxoethyl)-1H-pyrazol-4-yl)quinolin-4-yl)ethyl)-5-(2-(dimethylamino)ethoxy)-2-methylbenzamide]		> 250 µM	< 0.5 µM
Cc1ccc(OCCN(C)C)cc1C(=O)N[C@H](C)c1cc(-c2cnn(CCN(C)C)c2)nc2ccccc12 [Example 12, (R)-5-(2-(dimethylamino)ethoxy)-N-(1-(2-(1-(2-(dimethylamino)ethyl)-1H-pyrazol-4-yl)quinolin-4-yl)ethyl)-2-methylbenzamide]		114 ± 18.7 µM	< 0.5 µM
